Data as given in ChEMBL document CHEMBL1201862, “PubChem BioAssay data set” (2004).
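Cells were grown in 96-well plates and exposed to each compound for 48 hours at five concentrations; endpoints were interpolated linearly between bracketing concentrations, or set to the highest concentration if not reached. The concentration for 50% growth inhibition is given as GI50.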 Calls of active or inactive are those of the source. Cut-off read from the data, not from the text of the source: active = GI50 up to about 1.1 µM and inactive = higher.

Assays:
Experiment in all cases: inhibition of tumour cell growth, NCI panel, 48 h
A498 = tested on: A498
MDA-N = tested on: MDA-N
SK-MEL-5 = tested on: SK-MEL-5
SNB-75 = tested on: SNB-75
HOP-92 = tested on: HOP-92
T47D = tested on: T47D
PC-3 = tested on: PC-3
U-251 = tested on: U-251
COLO 205 = tested on: COLO 205
UACC-62 = tested on: UACC-62
LOX IMVI = tested on: LOX IMVI
OVCAR-8 = tested on: OVCAR-8
SK-OV-3 = tested on: SK-OV-3
CCRF-CEM = tested on: CCRF-CEM
SR = tested on: SR
NCI-H226 = tested on: NCI-H226
K562 = tested on: K562
OVCAR-5 = tested on: OVCAR-5
SW-620 = tested on: SW-620
Malme-3M = tested on: Malme-3M

Measured: GI50

COc1ccc(C(=O)N/N=C2\C(=O)c3c(C)cc(C)cc3CC2(C)C)cc1
inactive: A498 19.9 µM | MDA-N 19.3 µM | SK-MEL-5 16.7 µM | SNB-75 21.4 µM | HOP-92 14.9 µM | T47D 13.7 µM | PC-3 22.2 µM | U-251 17.1 µM | COLO 205 21.8 µM | UACC-62 15.1 µM | LOX IMVI 17.7 µM | OVCAR-8 20.9 µM | SK-OV-3 29.2 µM | CCRF-CEM 24.3 µM | SR 18.5 µM | NCI-H226 22.3 µM | K562 16.7 µM | OVCAR-5 21 µM | SW-620 20.8 µM | Malme-3M 14.9 µM

COP(=O)(OC)/C(=C/c1cn(C(c2ccccc2)(c2ccccc2)c2ccccc2)cn1)NC=O
inactive: A498 16.6 µM | MDA-N 19.2 µM | SK-MEL-5 13.7 µM | SNB-75 5.92 µM | HOP-92 18 µM | T47D 26.4 µM | PC-3 17 µM | U-251 16.4 µM | COLO 205 15.4 µM | UACC-62 18.7 µM | LOX IMVI 15.9 µM | OVCAR-8 21.7 µM | SK-OV-3 34 µM | CCRF-CEM 24.8 µM | SR > 100 µM | NCI-H226 29.5 µM | K562 84.9 µM | OVCAR-5 20.6 µM | SW-620 26 µM | Malme-3M 18.6 µM

Cn1c(=O)c2nc(CCCCc3nc4c(=O)n(C)c(=S)n(C)c4[nH]3)[nH]c2n(C)c1=S
inactive: A498 > 100 µM | MDA-N > 100 µM | SK-MEL-5 > 100 µM | SNB-75 23.4 µM | HOP-92 45.7 µM | T47D > 100 µM | PC-3 > 100 µM | U-251 57.4 µM | COLO 205 > 100 µM | UACC-62 > 100 µM | LOX IMVI > 100 µM | OVCAR-8 > 100 µM | SK-OV-3 45.2 µM | CCRF-CEM > 100 µM | SR > 100 µM | NCI-H226 > 100 µM | K562 > 100 µM | OVCAR-5 > 100 µM | SW-620 > 100 µM | Malme-3M > 100 µM

O=c1[nH]c(=O)n(C2OC(CO)C(O)C2O)c2ncc(-c3ccc(-c4ccccc4)cc3)nc12 (stereo not given)
inactive: A498 > 20 µM | MDA-N > 20 µM | SK-MEL-5 > 20 µM | SNB-75 > 20 µM | HOP-92 > 20 µM | T47D > 20 µM | PC-3 > 20 µM | U-251 > 20 µM | COLO 205 > 20 µM | UACC-62 > 20 µM | LOX IMVI > 20 µM | OVCAR-8 > 20 µM | SK-OV-3 > 20 µM | CCRF-CEM > 20 µM | SR > 20 µM | NCI-H226 > 20 µM | K562 > 20 µM | OVCAR-5 > 20 µM | SW-620 > 20 µM | Malme-3M > 20 µM

NC1=Nc2ccccc2Sc2cccc(F)c21
inactive: A498 34.4 µM | MDA-N 46.1 µM | SK-MEL-5 38 µM | SNB-75 46.5 µM | HOP-92 > 100 µM | T47D 62.2 µM | PC-3 63.5 µM | U-251 85.9 µM | COLO 205 61.7 µM | UACC-62 60.3 µM | LOX IMVI 99.5 µM | OVCAR-8 > 100 µM | SK-OV-3 > 100 µM | CCRF-CEM 25.2 µM | SR 35.1 µM | NCI-H226 66.5 µM | K562 37.2 µM | OVCAR-5 > 100 µM | SW-620 > 100 µM | Malme-3M > 100 µM

CC1OC(OC2C(O)COC(OC3C(C)OC(OC4C(OC(=O)[C@]56CCC(C)(C)C[C@@H]5C5=CCC7[C@@]8(C)C[C@H](O)[C@H](OC9OC(CO)C(O)C(OC%10OC(CO)C(O)C(O)C%10O)C9O)[C@@](C)(CO)[C@@H]8CC[C@@]7(C)[C@]5(C)CC6)OCC(O)C4O)C(O)C3OC3OCC(O)(CO)C3O)C2O)C(O)C(O)C1O (stereo not given in full)
inactive: A498 9.62 µM | MDA-N 10.2 µM | SK-MEL-5 8.05 µM | SNB-75 11.2 µM | HOP-92 10.2 µM | T47D 6.92 µM | PC-3 6 µM | U-251 10.4 µM | COLO 205 6.31 µM | UACC-62 12.9 µM | LOX IMVI 8.51 µM | OVCAR-8 9.84 µM | SK-OV-3 9.29 µM | CCRF-CEM 6.14 µM | SR 6.28 µM | NCI-H226 12.3 µM | K562 22.7 µM | OVCAR-5 9.02 µM | SW-620 6.43 µM | Malme-3M 5 µM

CCc1n[nH]c(=O)n1CCCCCCCCCCCCn1c(CC)n[nH]c1=O
inactive: A498 29.2 µM | MDA-N 32.1 µM | SK-MEL-5 16.1 µM | SNB-75 21 µM | HOP-92 37.1 µM | T47D 18 µM | PC-3 27.5 µM | U-251 22 µM | COLO 205 24.2 µM | UACC-62 18.3 µM | LOX IMVI 24.8 µM | OVCAR-8 24.7 µM | SK-OV-3 62.4 µM | CCRF-CEM 18.7 µM | SR 19.2 µM | NCI-H226 36.9 µM | K562 17.9 µM | OVCAR-5 47.1 µM | SW-620 37.2 µM | Malme-3M 25.9 µM

COc1ccc(N2C(=O)C(=O)N(c3ccc(/N=N\c4ccccc4)cc3)C2=S)cc1
inactive: A498 23.8 µM | MDA-N 19.3 µM | SK-MEL-5 16.7 µM | SNB-75 22.6 µM | HOP-92 16.8 µM | T47D 18.8 µM | PC-3 17.6 µM | U-251 17.1 µM | COLO 205 17.1 µM | UACC-62 16.6 µM | LOX IMVI 18.7 µM | OVCAR-8 17.9 µM | SK-OV-3 20.2 µM | CCRF-CEM 35.1 µM | SR 38 µM | NCI-H226 21.7 µM | K562 37.5 µM | OVCAR-5 21.1 µM | SW-620 18.7 µM | Malme-3M 18.5 µM

CC[C@]12CCCN3CCc4c(n(c5ccccc45)C(=O)C1)[C@@H]32 [VINBURNINE]
inactive: A498 14.4 µM | MDA-N 1.53 µM | SK-MEL-5 5.05 µM | SNB-75 13.3 µM | HOP-92 > 80.9 µM | T47D 11.5 µM | PC-3 18.2 µM | U-251 4.88 µM | COLO 205 4.43 µM | UACC-62 5.82 µM | LOX IMVI 10 µM | OVCAR-8 15.5 µM | SK-OV-3 10.8 µM | CCRF-CEM 1.31 µM | SR 1.31 µM | NCI-H226 > 83.8 µM | K562 2.9 µM | OVCAR-5 34.6 µM | SW-620 3.94 µM | Malme-3M 4.63 µM

O=C1CCc2ccc(O)c(c2)Oc2ccc(cc2)C(Sc2ccccc2)CCO1 (stereo not given)
inactive: A498 17.4 µM | MDA-N 16.2 µM | SK-MEL-5 12.1 µM | SNB-75 6.49 µM | HOP-92 10 µM | T47D 7.74 µM | PC-3 6.32 µM | U-251 16 µM | COLO 205 17.3 µM | UACC-62 15.1 µM | LOX IMVI 12.5 µM | OVCAR-8 18.1 µM | SK-OV-3 34.3 µM | CCRF-CEM 10.8 µM | SR 13.1 µM | NCI-H226 15 µM | K562 15.7 µM | OVCAR-5 17.1 µM | SW-620 17 µM | Malme-3M 13.9 µM
